Where a name gives a salt, the structure may show the parent alone.

The subject of one assay is Sprague Dawley rats. In words: Carrageenan-induced rat paw edema. The assay is classed as in vivo. To be noted: 30 mg/kg p.o. one hour before carrageenan; 1-6 h. The method, then:
Female Sprague Dawley rats were used and compounds of the invention were injected i.p. or dosed orally prior to carrageenan exposure. An equal volume of vehicle (PBS) was administered to the control group. Edema in the paws was induced as previously described by injecting 50 μl of a 0.5% solution of carrageenan (Type TV Lambda, Sigma) in saline with a 27-G needle s.c. in the right foot pat. (See Whiteley P. E. and Dalrymple S. A. (1998), Models of inflammation: carrageenan-induced paw edema in the rat, in Current Protocols in Pharmacology. Enna Si, Williams M, Ferkany J W, Kenaki T, Porsolt R E and Sullivan J P, eds., pp 5.4.1-5.4.3, John Wiley & Sons, New York) The size of the tested foot of each animal was measured volumetrically, before induction of edema, and at 1, 2, 3, 4, and 6 hours after carrageenan induction, to screen for compounds which inhibit the development of edema as compared to control animals.
The results of an experiment where three compounds of Example 21, Table I (LJP 1379, LJP 1383, LJP 1406) were used are shown in FIG. 2A, FIG. 2B, and FIG. 2C. […] Paw volumes were recorded at the indicated times and expressed as percent of the volume before injection (100%). […] Paw volumes were recorded at the indicated times and expressed as percent of the volume before injection (100%). […]

The target of another assay is T1, SSAO (Rattus norvegicus, UniProt O08590).
T1 construct: SSAO activity in 100 ul of lung homogenate was determined radiochemically; from tissue; host or cells: rat lung homogenate (1000 g supernatant)
T1 sequence (O08590 1-763): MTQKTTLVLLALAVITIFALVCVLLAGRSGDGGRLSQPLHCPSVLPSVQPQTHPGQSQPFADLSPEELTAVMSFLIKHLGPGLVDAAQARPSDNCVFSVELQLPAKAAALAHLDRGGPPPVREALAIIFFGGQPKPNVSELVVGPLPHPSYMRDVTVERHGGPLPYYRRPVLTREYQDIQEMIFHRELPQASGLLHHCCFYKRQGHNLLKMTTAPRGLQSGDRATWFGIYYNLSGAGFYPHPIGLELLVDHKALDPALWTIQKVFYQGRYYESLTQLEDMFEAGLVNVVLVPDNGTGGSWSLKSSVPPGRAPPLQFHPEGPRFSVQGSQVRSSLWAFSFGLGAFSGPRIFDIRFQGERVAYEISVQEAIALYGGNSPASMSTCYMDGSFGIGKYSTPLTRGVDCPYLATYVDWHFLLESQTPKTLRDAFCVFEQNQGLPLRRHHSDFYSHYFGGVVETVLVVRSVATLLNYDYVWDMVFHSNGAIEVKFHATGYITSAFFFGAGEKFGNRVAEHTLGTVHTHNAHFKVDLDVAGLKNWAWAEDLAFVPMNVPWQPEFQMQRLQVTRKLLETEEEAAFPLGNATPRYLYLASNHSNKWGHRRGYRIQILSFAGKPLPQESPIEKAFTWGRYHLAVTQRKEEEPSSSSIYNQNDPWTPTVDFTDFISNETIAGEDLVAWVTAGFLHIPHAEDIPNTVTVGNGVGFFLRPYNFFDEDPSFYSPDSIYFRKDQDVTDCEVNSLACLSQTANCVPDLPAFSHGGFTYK
Put plainly: In vitro inhibition of SSAO activity, radiolabeled benzylamine procedure (rat lung homogenate). The assay is classed as biochemical.

As to `NCC(=O)NCc1cc(F)cc(C(F)(F)F)c1` [LJP 1383, 2-amino-N-(3-fluoro-5-trifluoromethylbenzyl)acetamide trifluoroacetate], the “paw swelling (paw volume)” value in the assay with Sprague Dawley rats is “significantly reduced the paw swelling at all time points tested”. Moreover, at SSAO, the “reversibility of inhibition of SSAO enzyme activity” value was “irreversible”.

The values above are taken from patent publication US20120172392A1, “AMINE-BASED AND AMIDE-BASED INHIBITORS OF SEMICARBAZIDE-SENSITIVE AMINE OXIDASE (SSAO) ENZYME ACTIVITY AND VAP-1 MEDIATED ADHESION USEFUL FOR TREATMENT OF DISEASES” (priority 2004, published 2012).
